In US20190353647A1, “NOVEL REAL-TIME MULTIPLEXED, MULTI-COLOR BIOLUMINESCENCE RESONANCE ENERGY TRANSFER ASSAY, APPARATUS, AND USES THEREOF” (Universite de Bordeaux, priority 2016, published 2019):
Each block holds one molecule with its values, some of them ahead of it.

Columns and labels:
TRPV1 = biological target: T1, TRPV1 (Homo sapiens, UniProt Q8NER1); test: Intermolecular BRET assay, TRPV1-Luc/YFP-CaM in HEK293T cells; type: cell-based; settings: for Effect on CAPS-induced BRET increase: intermolecular test
T1 construct: expressed in transfected cells; host or cells: HEK293T
T1 sequence (Q8NER1 whole entry): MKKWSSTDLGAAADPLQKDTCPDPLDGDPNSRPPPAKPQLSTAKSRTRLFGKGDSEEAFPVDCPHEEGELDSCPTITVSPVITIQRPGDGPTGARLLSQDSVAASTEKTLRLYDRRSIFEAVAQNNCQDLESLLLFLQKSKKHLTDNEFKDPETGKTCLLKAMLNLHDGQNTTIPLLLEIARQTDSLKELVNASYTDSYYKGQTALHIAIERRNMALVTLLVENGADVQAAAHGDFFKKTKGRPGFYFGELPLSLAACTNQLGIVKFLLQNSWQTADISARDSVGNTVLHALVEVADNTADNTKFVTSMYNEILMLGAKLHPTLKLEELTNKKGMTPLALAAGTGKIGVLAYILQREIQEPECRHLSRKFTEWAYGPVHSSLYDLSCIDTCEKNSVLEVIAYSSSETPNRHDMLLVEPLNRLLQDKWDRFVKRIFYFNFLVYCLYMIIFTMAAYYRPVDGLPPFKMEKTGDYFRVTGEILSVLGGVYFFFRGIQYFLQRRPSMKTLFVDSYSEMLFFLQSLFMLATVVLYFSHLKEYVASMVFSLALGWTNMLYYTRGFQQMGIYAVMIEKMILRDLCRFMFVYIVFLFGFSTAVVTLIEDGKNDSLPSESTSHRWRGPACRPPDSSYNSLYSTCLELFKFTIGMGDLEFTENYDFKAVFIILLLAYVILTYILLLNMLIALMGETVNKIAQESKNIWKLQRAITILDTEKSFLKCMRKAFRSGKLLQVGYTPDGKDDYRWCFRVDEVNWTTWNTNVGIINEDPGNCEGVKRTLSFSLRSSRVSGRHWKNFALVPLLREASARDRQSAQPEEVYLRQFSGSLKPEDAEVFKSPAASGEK
Description: In order to generate the BRET constructs, super Yellow Fluorescent Protein 2 and Renilla Luciferase II were used to improve the brightness of the assay. They were referred as YFP and Luc for short in the rest of the manuscript. The cDNA of Luc and YFP were first cloned together using a three-piece ligation in the BamHI/XhoI site of pcDNA3.1(+) (Invitrogen, Carlsbad, Calif., USA), yielding two expression vectors pcDNA3.1 YFP-Luc where YFP was cloned in-fusion at the N-terminal of Luc, and pcDNA3.1 Luc-YFP where Luc was cloned in-fusion at the N-terminal of YFP. Both YFP and Luc were amplified by PCR from the pcDNA3-YFP-EPAC-Luc vector. Luc was cloned either at the N-terminal of YFP as a HindIII-EcoRI fragment (primers used: “Luc_HindIII_ATGN-term sense” and “Luc_no Stop_EcoRI_N-term antisense”) or at the COOH-terminal of YFP as an EcoRI-XhoI fragment (primer used: “Luc_EcoRI_ATG_C-term sense” and “Luc_XhoI_Stop_C-term antisense”). In parallel, YFP was cloned either at the N-terminal of Luc as a HindIII-EcoRI fragment (primers used: “YFP_HindIII_ATG_N-term sense” and “YFP_no Stop_EcoRI_N-term antisense”) or at the COOH-terminal of Luc as a EcoRI-XhoI fragment (primer used: “YFP_EcoRI_ATG_C-term sense” and “YFP_XhoI_Stop_C-term antisense”). The sequence joining Luc and YFP sequence encoded […] (SEQ ID NO: 18) as a linker, and contained an AgeI restriction site. The YFP-hTRPV1-Luc expression vector was obtained by subcloning the human TRPV1 cDNA from the pDONR201-hTRPV1 vector (Harvard Medical School PlasmID Repository, clone HsCD00081472) as an EcoRI PCR fragment in the EcoRI site of the vector pcDNA3.1 YFP-Luc (primer used: “hTRPV1_EcoRI_Fus_Sense” and “hTRPV1_EcoRI_Fus_antisense”). The hTRPV1-Luc expression vector was obtained by subcloning the cDNA of hTRPV1 as a HindIII-EcoRI fragment in place of the YFP in the HindIII-EcoRI site of the pcDNA3.1 YFP-Luc vector (primer used: “hTRPV1_HindIII_ATG_Sense” and “hTRPV1_EcoRI_Fus_antisense”). The Luc-hTRPV3 expression vector was obtained by subcloning the cDNA of hTRPV3 (Harvard Medical School PlasmID Repository, clone HsCD00341603) as a AgeI-XhoI fragment in place of the YFP in the AgeI-XhoI sites of the pcDNA3.1 Luc-YFP vector (primer used: “hTRPV3_AgeI_ATG_Sense” and “hTRPV3_Stop_XhoI_antisense”). The hTRPV4-Luc expression vector was obtained by subcloning the cDNA of hTRPV4 as a BamHI-AgeI fragment in place of the YFP in the BamHI-AgeI site of the pcDNA3.1 YFP-Luc vector (primer used: “hTRPV4_BamHI_ATG_Sense” and hTRPV4_AgeI_Fus_antisense”). In each case, the sequence joining the cDNA of interest and either Luc or YFP sequence encoded […] (SEQ ID NO: 18) as a linker.
The cDNA of mAmetrine (Plasmid #54660) and LssmOrange (Plasmid #37130) were obtained from AddGene plasmid repository. The cDNA of aquamarine, mAmetrine and LssmOrange were all subcloned as a HindIII-EcoRI fragment in place of the YFP in the HindIII-EcoRI site of the pcDNA3.1 YFP-Luc vector (primer used: “YFP_HindIII_ATG_N-term sense” and “YFP_no Stop_EcoRI_N-term antisense”) to yield pcDNA3.1 FP-Luc expression vectors (“FP” being any fluorescent protein between aquamarine, mAmetrine and LssmOrange). […] A similar strategy was used to obtain the FP-CaM expression vector using the pcDNA3.1 FP-Luc expression vector instead of the pcDNA3.1 YFP-Luc.
HEK293T cells were maintained in Dulbecco's modified Eagle's medium-high Glucose (DMEM) (D6429, Sigma) supplemented with 10% fetal bovine serum, 100 units mL-1 penicillin and streptomycin. Twenty-four hours before transfection, cells were seeded at a density of 500,000 cells in 6-well dishes. Transient transfections were performed using polyethylenimine (PEI, linear, Mr 25,000; catalogue number 23966 Polysciences, Inc., Warrington, Pa., USA) with a PEI:DNA ratio of 4:1. Usually, 0.1-0.25 μg of the donor constructions and 1.75-1.9 μg of the acceptors constructions were transfected for the BRET measurement.

TRPV4 = TRPV4 (Homo sapiens, UniProt Q9HBA0); test: Intermolecular BRET assay, TRPV4-Luc/YFP-CaM in HEK293T cells; type: cell-based; design: expressed in transfected cells; host or cells: HEK293T; settings: for TRPV4-Luc/YFP-CaM basal BRET signal on challenge: HEK293T, dose-response, FIG. 1
Sequence of TRPV4 (Q9HBA0 whole entry, the tested form may be a part): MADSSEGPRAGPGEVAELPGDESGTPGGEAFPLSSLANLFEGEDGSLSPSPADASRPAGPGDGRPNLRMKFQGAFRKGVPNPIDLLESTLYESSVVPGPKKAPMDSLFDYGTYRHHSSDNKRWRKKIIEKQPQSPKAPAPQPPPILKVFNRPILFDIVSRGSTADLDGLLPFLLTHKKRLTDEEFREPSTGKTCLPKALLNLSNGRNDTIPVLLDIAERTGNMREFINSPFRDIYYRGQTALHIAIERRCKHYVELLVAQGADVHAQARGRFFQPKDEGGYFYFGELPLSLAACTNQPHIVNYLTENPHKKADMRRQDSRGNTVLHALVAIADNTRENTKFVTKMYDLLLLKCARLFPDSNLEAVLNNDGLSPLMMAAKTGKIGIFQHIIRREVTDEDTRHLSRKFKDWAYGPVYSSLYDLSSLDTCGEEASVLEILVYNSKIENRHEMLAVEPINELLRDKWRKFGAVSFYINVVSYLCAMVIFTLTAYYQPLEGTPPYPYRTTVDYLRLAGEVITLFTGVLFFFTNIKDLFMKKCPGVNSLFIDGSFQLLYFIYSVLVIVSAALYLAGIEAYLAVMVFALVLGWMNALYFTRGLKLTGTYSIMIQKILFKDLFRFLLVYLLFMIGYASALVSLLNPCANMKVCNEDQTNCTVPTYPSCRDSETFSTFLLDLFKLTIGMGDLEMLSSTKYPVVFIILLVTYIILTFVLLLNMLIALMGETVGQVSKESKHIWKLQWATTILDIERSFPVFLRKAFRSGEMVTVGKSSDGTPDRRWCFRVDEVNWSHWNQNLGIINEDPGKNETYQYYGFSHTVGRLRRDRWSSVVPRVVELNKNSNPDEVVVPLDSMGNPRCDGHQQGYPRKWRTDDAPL
Description: In order to generate the BRET constructs, super Yellow Fluorescent Protein 2 and Renilla Luciferase II were used to improve the brightness of the assay. They were referred as YFP and Luc for short in the rest of the manuscript. The cDNA of Luc and YFP were first cloned together using a three-piece ligation in the BamHI/XhoI site of pcDNA3.1(+) (Invitrogen, Carlsbad, Calif., USA), yielding two expression vectors pcDNA3.1 YFP-Luc where YFP was cloned in-fusion at the N-terminal of Luc, and pcDNA3.1 Luc-YFP where Luc was cloned in-fusion at the N-terminal of YFP. Both YFP and Luc were amplified by PCR from the pcDNA3-YFP-EPAC-Luc vector. Luc was cloned either at the N-terminal of YFP as a HindIII-EcoRI fragment (primers used: “Luc_HindIII_ATGN-term sense” and “Luc_no Stop_EcoRI_N-term antisense”) or at the COOH-terminal of YFP as an EcoRI-XhoI fragment (primer used: “Luc_EcoRI_ATG_C-term sense” and “Luc_XhoI_Stop_C-term antisense”). In parallel, YFP was cloned either at the N-terminal of Luc as a HindIII-EcoRI fragment (primers used: “YFP_HindIII_ATG_N-term sense” and “YFP_no Stop_EcoRI_N-term antisense”) or at the COOH-terminal of Luc as a EcoRI-XhoI fragment (primer used: “YFP_EcoRI_ATG_C-term sense” and “YFP_XhoI_Stop_C-term antisense”). The sequence joining Luc and YFP sequence encoded […] (SEQ ID NO: 18) as a linker, and contained an AgeI restriction site. The YFP-hTRPV1-Luc expression vector was obtained by subcloning the human TRPV1 cDNA from the pDONR201-hTRPV1 vector (Harvard Medical School PlasmID Repository, clone HsCD00081472) as an EcoRI PCR fragment in the EcoRI site of the vector pcDNA3.1 YFP-Luc (primer used: “hTRPV1_EcoRI_Fus_Sense” and “hTRPV1_EcoRI_Fus_antisense”). The hTRPV1-Luc expression vector was obtained by subcloning the cDNA of hTRPV1 as a HindIII-EcoRI fragment in place of the YFP in the HindIII-EcoRI site of the pcDNA3.1 YFP-Luc vector (primer used: “hTRPV1_HindIII_ATG_Sense” and “hTRPV1_EcoRI_Fus_antisense”). […]
HEK293T cells were maintained in Dulbecco's modified Eagle's medium-high Glucose (DMEM) (D6429, Sigma) supplemented with 10% fetal bovine serum, 100 units mL-1 penicillin and streptomycin. […] After overnight incubation, transfected cells were then detached, resuspended in DMEM w/o red phenol (Ref 21063-029, ThermoFisher scientific, Waltham, Mass., USA) and replated at a density of 10^5 cells per well in 96-well white plates with clear bottoms (Greiner Bio one, Courtaboeuf, France) pre-treated with D-polylysine (Sigma) for reading with the Tristar2 luminometer (Berthold Technologies, Bad Wildbad, Germany) or onto 12 mm diameter glass coverslips (Knittel Glass, Braunschweig, Germany) treated with poly-L-lysine for the reading with the SpectraPro 2300i spectrometer (Acton Optics, Acton, Mass., USA). […]

[1] = TRPV1-Luc/YFP-CaM titration, presence vs absence of CAPS
[2] = temperature rise from 25 to 42° C., TRPV1-Luc/YFP-CaM

Structure (SMILES): CC(=O)Nc1nc2c(Oc3cc(-c4ccc(C(F)(F)F)cc4)ncn3)cccc2s1 [AMG517]
- Effect on CAPS-induced BRET increase (TRPV1; TRPV1-Luc/YFP-CaM): inhibited

Structure (SMILES): CCN(CC)CCOC(=O)C(c1ccccc1)C1CCCCC1 (stereo not shown) [Drofenine]
- TRPV4-Luc/YFP-CaM basal BRET signal on challenge (TRPV4): did not produce any increase

Structure (SMILES): CC(C)C[C@H](NC(=O)c1cc2ccccc2s1)C(=O)N1CCN(C(=O)[C@H](CO)NS(=O)(=O)c2ccc(Cl)cc2Cl)CC1 [GSK1016790A]
- EC50 (TRPV4): 1.93 nM
- TRPV4-Luc/YFP-CaM basal BRET signal on challenge (TRPV4): dose-dependent increase

The remaining lines, values ahead:

- TRPV4-Luc/YFP-CaM basal BRET signal on challenge (TRPV4): did not produce any increase
- Sensitivity of TRPV1-Luc/YFP-CaM interaction (TRPV1; HEK293T, dose-response, FIG. 1): sensitive
- Change of basal BRET signal (TRPV1; TRPV1-Luc/YFP-CaM): increased with a first order kinetic
- BRET50 (concentration of YFP-CaM needed to reach 50% of maximal BRET signal) (TRPV1; [1]): diminished
- Maximal BRET signal in BRET titration curves (TRPV1; [1]): dramatically increased
- Change in CAPS potency on temperature rise (TRPV1; [2]): leftward shift
- Change in maximal efficacy on temperature rise (TRPV1; [2]): increase
Structure (SMILES): COc1cc(CNC(=O)CCCC/C=C/C(C)C)ccc1O [CAPS, Capsaicin]

- BRET signal on heating from 25 to 50° C. after preincubation (TRPV1; TRPV1-Luc/YFP-CaM, cells preincubated with the compound): no significant increase
- Effect on CAPS-induced BRET increase (TRPV1; TRPV1-Luc/YFP-CaM): inhibited
Structure (SMILES): Oc1cc2c(cc1O)CN(C(=S)NCCc1ccc(Cl)cc1)CCC2 [CPZ, Capsazepine]
